Structures can show the parent of a compound that is named as a salt.
Molecular target: T1, human LTA4 hydrolase (Homo sapiens, UniProt P09960)
T1 sequence (P09960 1-611): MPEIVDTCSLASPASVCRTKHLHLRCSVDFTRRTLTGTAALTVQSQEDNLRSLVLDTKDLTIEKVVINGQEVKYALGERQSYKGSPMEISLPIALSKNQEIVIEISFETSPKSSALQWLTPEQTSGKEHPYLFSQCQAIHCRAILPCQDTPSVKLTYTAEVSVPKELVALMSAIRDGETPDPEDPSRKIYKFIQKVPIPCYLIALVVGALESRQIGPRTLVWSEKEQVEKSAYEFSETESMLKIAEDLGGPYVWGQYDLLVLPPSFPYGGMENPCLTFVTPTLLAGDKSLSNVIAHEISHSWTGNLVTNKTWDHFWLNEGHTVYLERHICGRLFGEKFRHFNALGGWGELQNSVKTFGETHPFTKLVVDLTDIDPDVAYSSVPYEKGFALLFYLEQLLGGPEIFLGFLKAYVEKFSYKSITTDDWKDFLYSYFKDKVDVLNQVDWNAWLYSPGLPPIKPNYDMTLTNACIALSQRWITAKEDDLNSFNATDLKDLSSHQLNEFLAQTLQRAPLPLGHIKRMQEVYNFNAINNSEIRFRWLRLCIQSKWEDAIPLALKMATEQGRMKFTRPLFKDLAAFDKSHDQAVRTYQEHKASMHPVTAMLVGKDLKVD
Test: LTA4H Enzyme assay (cleavage of Arg-AMC, fluorescence)
Type: biochemical
Settings: LTA4H Enzyme 1 nM, Arg-AMC substrate 50 μM, room temperature 1 h, fluorescence; read-out: IC50 values of LTA4H Enzyme assay
Method: The compounds of the invention are assessed for the ability to interact with human LTA4 hydrolase in an enzymatic assay that measures the ability of the enzyme to cleave the peptide bond of arginyl-aminomethylcoumarin (Arg-AMC). LTA4H Enzyme (1 nM final), Arg-AMC substrate (50 μM final), and compound are combined in a reaction buffer (50 mM Tris-HCl (pH 7.5), 100 mM KCl, 0.5% bovine serum albumin) at room temperature for 1 h. The formation of product is assessed by measuring the fluorescence of aminomethylcoumarin product (excitation wavelength 380 nm/emission wavelength 460 nm).

Row | Compound | IC50 [nM]
1 | Fc1ccc2c(c1)OC(c1ccc(CN3CCCC3)cc1)CO2 (stereo not drawn) [Example 203, 1-[4-(7-Fluoro-2,3-dihydro-benzo[1,4]dioxin-2-yl)-benzyl]-pyrrolidine] | 2.94
2 | OC1CCN(Cc2ccc([C@@H]3COc4ccccc4O3)cc2)CC1 (single isomer, unassigned) [Example 193] | 5.35
3 | CN1CCCC2(CCN(Cc3ccc([C@H]4COc5ccccc5O4)cc3)CC2)C1=O [Example 130, 9-[(S)-4-(2,3-Dihydro-benzo[1,4]dioxin-2-yl)-benzyl]-2-methyl-2,9-diaza-spiro[5.5]undecan-1-one] | 0.51
4 | CC(C)(C(=O)O)C1CCN(Cc2ccc([C@H]3COc4cccnc4O3)cc2)CC1 [Example 230, 2-{1-[(S)-4-(2,3-Dihydro-[1,4]dioxino[2,3-b]pyridin-3-yl)-benzyl]-piperidin-4-yl}-2-methyl-propionic acid formate salt] | 1.24
5 | NC(=O)C1CCCN(Cc2ccc([C@H]3COc4cccnc4O3)cc2)C1 (stereo partly drawn) [Example 136, 1-{4-[(3S)-2,3-dihydro[1,4]dioxin[2,3-b]pyridin-3-yl]benzyl}piperidine-3-carboxamide] | 0.19
6 | CN(CC(=O)O)Cc1ccc([C@H]2COc3ccccc3O2)cc1 [Example 60, N-{4-[(2S)-2,3-dihydro-1,4-benzodioxin-2-yl]benzyl}-N-methylglycine] | 31
7 | CN(C)C1CCN(Cc2ccc([C@H]3COc4ccccc4O3)cc2)C1 (stereo partly drawn) [Example 93, 1-{4-[(2S)-2,3-dihydro-1,4-benzodioxin-2-yl]benzyl}-N,N-dimethylpyrrolidin-3-amine] | 1.98
8 | O=C1OCCN1Cc1ccc(C2COc3cccnc3O2)cc1 (stereo not drawn) [Example 209, 3-[4-(2,3-dihydro[1,4]dioxino[2,3-b]pyridin-3-yl)benzyl]-1,3-oxazolidin-2-one] | 12.4
9 | CC(C)(C)C(CC(=O)O)NCc1ccc([C@H]2COc3ccccc3O2)cc1 (stereo partly drawn) [Example 58, 3-({4-[(2S)-2,3-dihydro-1,4-benzodioxin-2-yl]benzyl}amino)-4,4-dimethylpentanoic acid] | 1.36
10 | O=C(C1CCN(Cc2ccc([C@H]3COc4cccnc4O3)cc2)CC1)N1CCOCC1 [Example 162, (1-{4-[(3S)-2,3-dihydro[1,4]dioxino[2,3-b]pyridin-3-yl]benzyl}piperidin-4-yl)(morpholin-4-yl)methanone] | 0.14
11 | CC1(C(=O)O)CCN(Cc2ccc([C@H]3COc4cccnc4O3)cc2)CC1 [Example 228, 1-[(S)-4-(2,3-Dihydro-[1,4]dioxino[2,3-b]pyridin-3-yl)-benzyl]-4-methyl-piperidine-4-carboxylic acid formate salt] | 0.61
12 | CC(=O)NC1CCN(Cc2ccc([C@H]3COc4ccccc4O3)cc2)C1 (stereo partly drawn) [Example 82, N-(1-{4-[(2S)-2,3-dihydro-1,4-benzodioxin-2-yl]benzyl}pyrrolidin-3-yl)acetamide] | 0.2
13 | CN1CCCN(Cc2ccc([C@H]3COc4cccnc4O3)cc2)CC1 [Example 143, (3S)-3-{4-[(4-methyl-1,4-diazepan-1-yl)methyl]phenyl}-2,3-dihydro[1,4]dioxino[2,3-b]pyridine] | 0.3
14 | Oc1ccc(CNCc2ccc([C@H]3COc4ccccc4O3)cc2)cc1 [Example 111, 4-[({4-[(2S)-2,3-dihydro-1,4-benzodioxin-2-yl]benzyl}amino)methyl]phenol] | 2.25
15 | CS(=O)(=O)N1CCN(Cc2ccc([C@H]3COc4cccnc4O3)cc2)CC1 [Example 188, (3S)-3-(4-{[4-(methylsulfonyl)piperazin-1-yl]methyl}phenyl)-2,3-dihydro[1,4]dioxino[2,3-b]pyridine] | 0.87
16 | O=C1CCN(Cc2ccc([C@H]3COc4cccnc4O3)cc2)CCN1 [Example 132, 1-{4-[(3S)-2,3-dihydro[1,4]dioxino[2,3-b]pyridin-3-yl]benzyl}-1,4-diazepan-5-one] | 0.91
17 | CNC(=O)C1CCN(Cc2ccc([C@H]3COc4cccnc4O3)cc2)CC1 [Example 152, 1-{4-[(3S)-2,3-dihydro[1,4]dioxino[2,3-b]pyridin-3-yl]benzyl}-N-methylpiperidine-4-carboxamide] | 0.17
18 | CN1CCCN(Cc2ccc(C3COc4ccccc4O3)cc2)CC1 (racemic) [Example 30, 1-[4-(2,3-dihydro-1,4-benzodioxin-2-yl)benzyl]-4-methyl-1,4-diazepane] | 1.77

Row | Compound | IC50 [nM]
19 | O=C(CO)NC1CCN(Cc2ccc([C@H]3COc4cccnc4O3)cc2)CC1 [Example 222, N-(1-{4-[(3S)-2,3-dihydro[1,4]dioxino[2,3-b]pyridin-3-yl]benzyl}piperidin-4-yl)-2-hydroxyacetamide] | 0.14
20 | O=S1(=O)CCCN1C1CCN(Cc2ccc([C@H]3COc4ccccc4O3)cc2)CC1 [Example 224, 1-[(S)-4-(2,3-Dihydro-benzo[1,4]dioxin-2-yl)-benzyl]-4-(1,1-dioxo-1λ^6-isothiazolidin-2-yl)-piperidine] | 0.13
21 | c1cnc2c(c1)OCC(c1ccc(CN3CCCC3)cc1)O2 (racemic) [Example 15, 3-[4-(pyrrolidin-1-ylmethyl)phenyl]-2,3-dihydro[1,4]dioxin[2,3-b]pyridine] | 0.36
22 | c1cncc(CNCc2ccc(C3COc4ccccc4O3)cc2)c1 (racemic) [Example 54, 1-[4-(2,3-dihydro-1,4-benzodioxin-2-yl)phenyl]-N-(pyridin-3-ylmethyl)methanamine] | 5.93
23 | NC(=O)N1CCCC12CCN(Cc1ccc([C@H]3COc4ccccc4O3)cc1)C2 (stereo partly drawn) [Example 119, 7-{4-[(2S)-2,3-dihydro-1,4-benzodioxin-2-yl]benzyl}-1,7-diazaspiro[4.4]nonane-1-carboxamide] | 0.1
24 | N#CCN1CCCC12CCN(Cc1ccc([C@H]3COc4ccccc4O3)cc1)C2 (stereo partly drawn) [Example 124, (7-{4-[(2S)-2,3-dihydro-1,4-benzodioxin-2-yl]benzyl}-1,7-diazaspiro[4.4]non-1-yl)acetonitrile] | 2.45
25 | NC(=O)C1CCCN(Cc2ccc(C3COc4ccccc4O3)cc2)C1 (racemic) [Example 114, 1-[4-(2,3-dihydro-1,4-benzodioxin-2-yl)benzyl]piperidine-3-carboxamide] | 0.77
26 | CC(C)(CN1CCCC1)NCc1ccc([C@H]2COc3cccnc3O2)cc1 [Example 157, N-{4-[(3S)-2,3-dihydro[1,4]dioxino[2,3-b]pyridin-3-yl]benzyl}-2-methyl-1-(pyrrolidin-1-yl)propan-2-amine] | 0.18
27 | NC(=O)[C@H]1CC[C@H](NCc2ccc([C@H]3COc4ccccc4O3)cc2)CC1 [Example 66, trans-4-({4-[(2S)-2,3-dihydro-1,4-benzodioxin-2-yl]benzyl}amino)cyclohexane-carboxamide] | 1.79
28 | OC1CCCN(Cc2ccc([C@H]3COc4ccccc4O3)cc2)C1 (stereo partly drawn) [Example 78, 1-{4-[(2S)-2,3-dihydro-1,4-benzodioxin-2-yl]benzyl}piperidin-3-ol] | 1.4
29 | O=C1NCCC12CCN(Cc1ccc(C3COc4ccccc4O3)cc1)CC2 (racemic) [Example 4, 8-[4-(2,3-dihydro-1,4-benzodioxin-2-yl)benzyl]-2,8-diazaspiro[4.5]decan-1-one] | 0.74
30 | O=C1CN(Cc2ccc([C@H]3COc4ccccc4O3)cc2)CN1 [Example 92, 1-{4-[(2S)-2,3-dihydro-1,4-benzodioxin-2-yl]benzyl}imidazolidin-4-one] | 36
31 | CC1COCCN1Cc1ccc([C@H]2COc3ccccc3O2)cc1 (stereo partly drawn) [Example 107, 4-{4-[(2S)-2,3-dihydro-1,4-benzodioxin-2-yl]benzyl}-3-methylmorpholine] | 1.35
32 | F[C@H]1CCN(Cc2ccc(C3COc4ccccc4O3)cc2)C1 (mixture of isomers) [Example 115, (3S)-1-[4-(2,3-dihydro-1,4-benzodioxin-2-yl)benzyl]-3-fluoropyrrolidine] | 3.03
33 | O=C(O)c1ccc(C2CCN(Cc3ccc([C@H]4COc5cccnc5O4)cc3)CC2)cc1 [Example 235, 4-(1-{4-[(3S)-2,3-dihydro[1,4]dioxino[2,3-b]pyridin-3-yl]benzyl}piperidin-4-yl)benzoic acid] | 0.08
34 | OCCCC1CCN(Cc2ccc([C@H]3COc4cccnc4O3)cc2)CC1 [Example 149, 3-(1-{4-[(3S)-2,3-dihydro[1,4]dioxino[2,3-b]pyridin-3-yl]benzyl}piperidin-4-yl)propan-1-ol] | 0.24
35 | O=C(O)c1ccc(CC2CCN(Cc3ccc([C@H]4COc5ccccc5O4)cc3)CC2)cc1 [Example 231, 4-{1-[(S)-4-(2,3-Dihydro-benzo[1,4]dioxin-2-yl)-benzyl]-piperidin-4-ylmethyl}-benzoic acid] | 0.29
36 | CN(C)C(=O)C1CCN(Cc2ccc([C@H]3COc4ccccc4O3)cc2)CC1 [Example 8, 1-{4-[(2S)-2,3-dihydro-1,4-benzodioxin-2-yl]benzyl}-N,N-dimethylpiperidine-4-carboxamide] | 0.32
